# Experimental data: patent publication US7038036B2, “Oligonucleotides labeled with stable isotopes and a method for detecting the same” (Taiyo Nippon Sanso Corporation, priority 1999, dated 2006)
# Entries after “also recorded” stand apart in the source; their conditions may differ.
# Test: NMR detection of 13C/15N-labeled RNA in mouse serum sampled three hours after inoculation into the tail
# Type: in vivo, mice (BALB/cAnNCr)
# Conditions: for signals derived from base pairs, 500 MHz 1H-NMR spectra of exchangeable protons (imino protons) / signals derived from nucleic acid bases, 500 MHz 1H-NMR spectra of non-exchangeable protons (9 to 6.5 ppm): 25° C.
# Procedure: Four female SPF/VAF mice (BALB/cAnNCr, 8 weeks old, No. 1 to No. 4) supplied by Charles River Japan, Inc. were used for the experiment.
# The abovementioned oligonucleotide (5 mg) was dissolved in 120 μl of a physiological saline solution to prepare four […] samples. Two samples were administered without a drug delivery system. The abovementioned histone subunit mixture was added to the remaining two samples to form a complex. • Sample 1: ^13C—^15N-labeled RNA (inoculated into and sampled from No. 1 mouse) • Sample 2: ^13C—^15N-labeled RNA (inoculated into and sampled from No. 2 mouse) • Sample 3: the complex of ^13C—^15N-labeled RNA and the drug delivery system (inoculated into and sampled from No. 3 mouse) • Sample 4: the complex of ^13C—^15N-labeled RNA and the drug delivery system (inoculated into and sampled from No. 4 mouse)
# Each sample solution (100 μl), which was adjusted to 62.5 mg/kg, was inoculated into the tail of the abovementioned mice. Three hours after the inoculation, the mice were anesthetized with ether and about 1 ml of whole blood was sampled from the heart. This whole blood was allowed to stand at room temperature for 30 minutes, and then centrifuged at 1,500 rpm at room temperature for 15 minutes. Supernatant serum obtained by the centrifugation was subjected to NMR measurement as follows. Heavy water (20 μl) was added to the samples (400 μl each) obtained by the abovementioned centrifugation, and the measurement of NMR spectra was carried out at 25° C. A DRX-500 NMR spectrometer (BRUKER) was used for the measurement. Pre-saturation was carried out for the measurement of non-exchangeable protons and jump-and-return pulses were used for the measurement of exchangeable imino proton spectra.
# [1] = mouse serum, three hours after inoculation, 62.5 mg/kg, 62.5 mg/kg
# [2] = mouse serum, three hours after inoculation, 62.5 mg/kg, listed as Sample 2, 62.5 mg/kg
substance,measurement,setting,value
"Sample 1: oligonucleotide comprising 43 bases shown in SEQ ID No. 1, RNA labeled with 13C and 15N, administered without a drug delivery system (antisense GGGAGAGGGCAACCUGACCUGUUAUCAUCGCAAGAAGCUUCCG; RNA, phosphodiester; uniformly 13C/15N isotope-labeled ribonucleotides)",detection of the oligonucleotide by NMR,"complex with the drug delivery system (histone subunit mixture) formed, mouse serum, three hours after inoculation",entire length of the oligonucleotide was detected
same,13C-1H HMQC spectra of non-exchangeable protons,"mouse serum, three hours after inoculation, 62.5 mg/kg","Only noise, and no spectrum derived from RNA"
same,"signals derived from base pairs, 500 MHz 1H-NMR spectra of exchangeable protons (imino protons)",[1],Absolutely no signal; also recorded: barely detected
same,"signals derived from nucleic acid bases, 500 MHz 1H-NMR spectra of non-exchangeable protons (9 to 6.5 ppm)",[1],only extremely weak signals; also recorded: barely detected
same,"signals derived from base pairs, 500 MHz 1H-NMR spectra of exchangeable protons (imino protons)",[2],Absolutely no signal; also recorded: barely detected
same,"signals derived from nucleic acid bases, 500 MHz 1H-NMR spectra of non-exchangeable protons (9 to 6.5 ppm)",[2],only extremely weak signals; also recorded: barely detected
same,detection of the oligonucleotide by NMR,"no complex with the drug delivery system formed, mouse serum, three hours after inoculation",barely detected
same,time the antisense chain existed in the blood,"when the drug delivery system was used, mice",up to 3 hours
same,decomposition of the RNA present in the blood,"when the drug delivery system was used, mice, three hours after inoculation",did not undergo partial decomposition
